Data published in the NIST ThermoML archive (doi:10.1021/je200811n).
± gives the expanded uncertainty stated by the source.

Details: Hot wire method

C=C(F)C(F)(F)F [2,3,3,3-tetrafluoro-1-propene]
thermal conductivity (261.41 K, 6311 kPa, Liquid): 0.07964 ± 0.00089 W/m/K
thermal conductivity (261.48 K, 992 kPa, Liquid): 0.07655 ± 0.00085 W/m/K
thermal conductivity (261.48 K, 996 kPa, Liquid): 0.07656 ± 0.00089 W/m/K
thermal conductivity (261.5 K, 6309 kPa, Liquid): 0.07953 ± 0.0009 W/m/K
thermal conductivity (261.84 K, 987 kPa, Liquid): 0.07643 ± 0.00085 W/m/K
thermal conductivity (261.85 K, 6313 kPa, Liquid): 0.07948 ± 0.00089 W/m/K
thermal conductivity (261.87 K, 11445 kPa, Liquid): 0.08189 ± 0.00093 W/m/K
thermal conductivity (261.88 K, 21642 kPa, Liquid): 0.0867 ± 0.00099 W/m/K
thermal conductivity (261.96 K, 983 kPa, Liquid): 0.07514 ± 0.00084 W/m/K
thermal conductivity (261.97 K, 1005 kPa, Liquid): 0.07519 ± 0.00084 W/m/K
thermal conductivity (261.97 K, 6311 kPa, Liquid): 0.07846 ± 0.00087 W/m/K
thermal conductivity (261.97 K, 11446 kPa, Liquid): 0.0813 ± 0.00091 W/m/K
thermal conductivity (261.98 K, 21635 kPa, Liquid): 0.08614 ± 0.00098 W/m/K
thermal conductivity (262.35 K, 11445 kPa, Liquid): 0.08085 ± 0.00089 W/m/K
thermal conductivity (262.35 K, 16435 kPa, Liquid): 0.08308 ± 0.00091 W/m/K
thermal conductivity (262.35 K, 21632 kPa, Liquid): 0.08538 ± 0.00094 W/m/K
thermal conductivity (262.36 K, 6309 kPa, Liquid): 0.0784 ± 0.00086 W/m/K
thermal conductivity (262.37 K, 990 kPa, Liquid): 0.0754 ± 0.00084 W/m/K
thermal conductivity (262.38 K, 999 kPa, Liquid): 0.07563 ± 0.00084 W/m/K
thermal conductivity (262.48 K, 21630 kPa, Liquid): 0.08542 ± 0.00094 W/m/K
thermal conductivity (262.49 K, 11446 kPa, Liquid): 0.08082 ± 0.00089 W/m/K
thermal conductivity (262.49 K, 16441 kPa, Liquid): 0.08301 ± 0.00091 W/m/K
thermal conductivity (262.51 K, 984 kPa, Liquid): 0.07532 ± 0.00083 W/m/K
thermal conductivity (262.51 K, 6308 kPa, Liquid): 0.07834 ± 0.00086 W/m/K
thermal conductivity (262.53 K, 1003 kPa, Liquid): 0.0754 ± 0.00083 W/m/K
thermal conductivity (262.87 K, 94 kPa, Gas): 0.01103 ± 0.00038 W/m/K
thermal conductivity (262.87 K, 141 kPa, Gas): 0.01112 ± 0.00038 W/m/K
thermal conductivity (262.87 K, 180 kPa, Gas): 0.01121 ± 0.00039 W/m/K
thermal conductivity (262.87 K, 21632 kPa, Liquid): 0.08568 ± 0.00094 W/m/K
thermal conductivity (262.89 K, 16441 kPa, Liquid): 0.0831 ± 0.00091 W/m/K
thermal conductivity (262.9 K, 11444 kPa, Liquid): 0.08074 ± 0.00089 W/m/K
thermal conductivity (262.93 K, 6308 kPa, Liquid): 0.07833 ± 0.00086 W/m/K
thermal conductivity (262.95 K, 981 kPa, Liquid): 0.07547 ± 0.00083 W/m/K
thermal conductivity (262.97 K, 1000 kPa, Liquid): 0.07554 ± 0.00084 W/m/K
thermal conductivity (263.04 K, 21629 kPa, Liquid): 0.08528 ± 0.00093 W/m/K
thermal conductivity (263.06 K, 16439 kPa, Liquid): 0.0831 ± 0.00091 W/m/K
thermal conductivity (263.08 K, 11447 kPa, Liquid): 0.08051 ± 0.00089 W/m/K
thermal conductivity (263.1 K, 94 kPa, Gas): 0.01092 ± 0.00038 W/m/K
thermal conductivity (263.1 K, 139 kPa, Gas): 0.01099 ± 0.00038 W/m/K
thermal conductivity (263.1 K, 178 kPa, Gas): 0.01109 ± 0.00038 W/m/K
thermal conductivity (263.11 K, 6306 kPa, Liquid): 0.07818 ± 0.00086 W/m/K
thermal conductivity (263.14 K, 981 kPa, Liquid): 0.07525 ± 0.00083 W/m/K
thermal conductivity (263.15 K, 1006 kPa, Liquid): 0.07526 ± 0.00083 W/m/K
thermal conductivity (263.15 K, Liquid): 0.07493 ± 0.0005 W/m/K
thermal conductivity (263.3 K, 186 kPa, Gas): 0.01073 ± 0.00037 W/m/K
thermal conductivity (263.33 K, 145 kPa, Gas): 0.01079 ± 0.00037 W/m/K
thermal conductivity (263.34 K, 176 kPa, Gas): 0.01103 ± 0.00038 W/m/K
thermal conductivity (263.35 K, 137 kPa, Gas): 0.01093 ± 0.00038 W/m/K
thermal conductivity (263.36 K, 94 kPa, Gas): 0.01083 ± 0.00037 W/m/K
thermal conductivity (263.41 K, 93 kPa, Gas): 0.01084 ± 0.00037 W/m/K
thermal conductivity (263.45 K, 21625 kPa, Liquid): 0.0853 ± 0.00094 W/m/K
thermal conductivity (263.47 K, 16441 kPa, Liquid): 0.08318 ± 0.00091 W/m/K
thermal conductivity (263.51 K, 11446 kPa, Liquid): 0.08071 ± 0.00089 W/m/K
thermal conductivity (263.55 K, 6310 kPa, Liquid): 0.07796 ± 0.00086 W/m/K
thermal conductivity (263.59 K, 977 kPa, Liquid): 0.0751 ± 0.00083 W/m/K
thermal conductivity (263.61 K, 184 kPa, Gas): 0.01083 ± 0.00037 W/m/K
thermal conductivity (263.61 K, 1002 kPa, Liquid): 0.07516 ± 0.00083 W/m/K
thermal conductivity (263.65 K, 21628 kPa, Liquid): 0.08509 ± 0.00093 W/m/K
thermal conductivity (263.66 K, 143 kPa, Gas): 0.01082 ± 0.00037 W/m/K
thermal conductivity (263.68 K, 16436 kPa, Liquid): 0.08284 ± 0.00091 W/m/K
thermal conductivity (263.72 K, 11448 kPa, Liquid): 0.08052 ± 0.00089 W/m/K
thermal conductivity (263.76 K, 94 kPa, Gas): 0.01087 ± 0.00038 W/m/K
thermal conductivity (263.77 K, 6312 kPa, Liquid): 0.07776 ± 0.00086 W/m/K
thermal conductivity (263.83 K, 978 kPa, Liquid): 0.07472 ± 0.00084 W/m/K
thermal conductivity (263.83 K, 1003 kPa, Liquid): 0.0748 ± 0.00084 W/m/K
thermal conductivity (263.97 K, 181 kPa, Gas): 0.01086 ± 0.00038 W/m/K
thermal conductivity (264.03 K, 141 kPa, Gas): 0.01087 ± 0.00038 W/m/K
thermal conductivity (264.1 K, 21626 kPa, Liquid): 0.08524 ± 0.00093 W/m/K
thermal conductivity (264.13 K, 94 kPa, Gas): 0.01089 ± 0.00038 W/m/K
thermal conductivity (264.14 K, 16440 kPa, Liquid): 0.08287 ± 0.00091 W/m/K
thermal conductivity (264.18 K, 11446 kPa, Liquid): 0.08043 ± 0.00089 W/m/K
thermal conductivity (264.33 K, 21622 kPa, Liquid): 0.08504 ± 0.00094 W/m/K
thermal conductivity (264.34 K, 179 kPa, Gas): 0.01089 ± 0.00038 W/m/K
thermal conductivity (264.38 K, 16435 kPa, Liquid): 0.08267 ± 0.00091 W/m/K
thermal conductivity (264.41 K, 140 kPa, Gas): 0.01091 ± 0.00038 W/m/K
thermal conductivity (264.42 K, 11443 kPa, Liquid): 0.08017 ± 0.00088 W/m/K
thermal conductivity (264.55 K, 94 kPa, Gas): 0.01091 ± 0.00038 W/m/K
thermal conductivity (264.75 K, 177 kPa, Gas): 0.01092 ± 0.00038 W/m/K
thermal conductivity (264.83 K, 138 kPa, Gas): 0.01094 ± 0.00038 W/m/K
thermal conductivity (264.99 K, 94 kPa, Gas): 0.01095 ± 0.00038 W/m/K
thermal conductivity (271.81 K, 106 kPa, Gas): 0.01176 ± 0.0004 W/m/K
thermal conductivity (271.82 K, 144 kPa, Gas): 0.01183 ± 0.00041 W/m/K
thermal conductivity (271.83 K, 200 kPa, Gas): 0.01195 ± 0.00041 W/m/K
thermal conductivity (272.04 K, 105 kPa, Gas): 0.01163 ± 0.0004 W/m/K
thermal conductivity (272.04 K, 200 kPa, Gas): 0.01186 ± 0.00041 W/m/K
thermal conductivity (272.05 K, 143 kPa, Gas): 0.0117 ± 0.0004 W/m/K
thermal conductivity (272.22 K, 246 kPa, Gas): 0.01157 ± 0.0004 W/m/K
thermal conductivity (272.22 K, 271 kPa, Gas): 0.01155 ± 0.0004 W/m/K
thermal conductivity (272.24 K, 200 kPa, Gas): 0.01151 ± 0.0004 W/m/K
thermal conductivity (272.28 K, 200 kPa, Gas): 0.01178 ± 0.0004 W/m/K
thermal conductivity (272.29 K, 104 kPa, Gas): 0.01154 ± 0.0004 W/m/K
thermal conductivity (272.29 K, 148 kPa, Gas): 0.01151 ± 0.0004 W/m/K
thermal conductivity (272.3 K, 141 kPa, Gas): 0.01161 ± 0.0004 W/m/K
thermal conductivity (272.34 K, 108 kPa, Gas): 0.01153 ± 0.0004 W/m/K
thermal conductivity (272.5 K, 272 kPa, Gas): 0.01161 ± 0.0004 W/m/K
thermal conductivity (272.54 K, 200 kPa, Gas): 0.01154 ± 0.0004 W/m/K
thermal conductivity (272.6 K, 146 kPa, Gas): 0.01157 ± 0.0004 W/m/K
thermal conductivity (272.67 K, 107 kPa, Gas): 0.01162 ± 0.0004 W/m/K
thermal conductivity (272.83 K, 272 kPa, Gas): 0.0116 ± 0.0004 W/m/K
thermal conductivity (272.84 K, 263 kPa, Gas): 0.01161 ± 0.0004 W/m/K
